Reference: patent US20110294992A1, “METAL RESPONSIVE MRI-AGENTS” (The Regents of the University of California, priority 2010, published 2011)
Read-outs that look alike come from different tables or passages of the source. Marks after values point to notes of the source that are not given here.

Tests used:
[1] = Electrochemical Cu2+/Cu+ reduction potentials of copper-bound CG complexes; assay type: physicochemical; conditions: PBS buffer, pH 7.4
Description: CG6 is a unique member of the CG family that is equally responsive to both Cu^+ and Cu^2+. Addition of either Cu^+ or Cu^2+ to CG6 triggers a maximum 73% relaxivity turn-on from r1=2.2 mM^−1s^−1 to r1=3.8 mM^−1s^−1. […] On the other hand, copper-bound CG6, which responds to both Cu^+ and Cu^2+, has the least positive Cu^2+/Cu^+ reduction potential at +0.13 V.

[2] = Apparent Kd for Cu+ by UV-visible absorption with competing ligand thiourea; assay type: binding; conditions: 20 mM HEPES buffer, pH 7, 25° C., 1:1 stoichiometry assumed, read-out: Kd (apparent dissociation constant)
Description: FIG. 5. Normalized absorbance response of 0.2 mM CG2-6 to buffered Cu^+ (CG2-5) or Cu^2+ (CG6) solutions for Kd value determination. Spectra were acquired in 20 mM HEPES, pH 7.

[3] = Longitudinal relaxivity (r1) from T1 measurements at 60 MHz, absence of copper; assay type: physicochemical; conditions: no copper; 60 MHz, 20 mM HEPES buffer, pH 7, 37° C., 0.2 mM Gd^3+
Description: (§1) The longitudinal relaxivity values for the CG contrast agents in the absence or presence of copper ions were determined using T1 measurements at 60 MHz. Studies were performed at 37° C. in 20 mM HEPES buffered to pH 7, and solutions of the purified CG sensors for relaxivity experiments contained 0.2 mM Gd^3+ as determined by ICP-OES. Spectroscopic data are collected in Table 1.
Nuclear magnetic relaxation dispersion (NMRD) experiments provide supporting evidence for this proposal (vide infra).

[4] = Nuclear magnetic relaxation dispersion (NMRD) profiles, Solomon-Bloembergen-Morgan fit; assay type: physicochemical; conditions: copper free; for r1p 20 MHz 25° C.: 0.5 mM, 20 mM HEPES pH 7; for a (distance of closest approach of outer-sphere water protons) / Δ^2 (average quadratic transient zero field splitting) / τv (electronic correlation time): best-fit value; for q: fixed in the fitting procedure; for τR (rotational correlation time): not experimentally determined, assumed equal to corresponding q ≠ 0 complex (CG5: average of the other complexes)
Description: FIG. 9. ^1H Nuclear magnetic relaxation dispersion profiles of CG3 and CG3+Cu^+ acquired at 25° C. The solid lines represent the best fit profiles.
As a secondary, independent set of experiments to further probe the mechanisms of copper ion sensing by the CG contrast agents, we also performed nuclear magnetic relaxation dispersion (NMRD) measurements of these sensors in the absence and in the presence of copper ions using a field cycling relaxometer (FIG. 9). The profiles obtained were analyzed following Solomon-Bloembergen-Morgan theory^36-38 for the inner-sphere relaxivity and the Freed model^115 for the outer-sphere relaxivity, fixing the diffusion coefficient (D) at […], the distance between Gd^3+ and the inner sphere water protons (r) at 3.1 Å, and the inner sphere exchange lifetime (τM) at 160 ns, the reported value for the parent complex Gd^3+-DO3A. Profiles were obtained for all compounds in the copper-free state. Profiles in the presence of Cu^n+ were obtained for CG2-4 (Cu^+) and CG6 (Cu^2+).
In fact, the measured outer-sphere relaxivities were so low that, in order to obtain a reasonable fit, the distance of closest approach of outer-sphere water protons (a) was allowed to vary. The distances obtained for the CG complexes (4.2-4.8 Å) were markedly longer than what is observed for typical Gd^3+ contrast agents with greater water access (3.8-4 Å). These values correlate with the copper-free relaxivities of CG2-6; longer a values give lower relaxivities and shorter a values give higher relaxivities. For Cu^+-sensing agents CG2-4, the estimated change in q of 2 as determined by DIS measurements was also observed in the fitted NMRD data. In fact, any attempt to fit the observed NMRD profiles with q=1 led to very poor agreement between experimental and calculated values. The change in q of 1 for CG6 upon addition of Cu^2+ as determined by NMRD is consistent with the lower turn-on response observed with this complex compared to CG2-4. The reduced q modulation for CG6 relative to CG2-4 could indicate that the carboxylic acid moiety used for Cu^2+ binding also interacts with the Gd^3+ center in the Cu^2+-bound state. The fitted rotational correlation times (τR) for copper-bound CG complexes all fall within the range expected for Gd^3+ complexes with molecular weights of 700-800 D. τR values for copper-free CG2-6 were fixed to values close to their copper-bound analogues as fits of NMRD data for q=0 complexes are not sensitive to small changes in τR. The values of Δ^2 (average quadratic transient zero field splitting), τv (electronic correlation time), and τs0 (electronic relaxation time at zero field), which govern the electronic relaxation time, are relatively similar to each other. These NMRD values are closer to those of Gd^3+-DTPA than Gd^3+-DOTA, reflecting the asymmetry of CG2-6.^64

[5] = Longitudinal relaxivity (r1) turn-on response to Cu+ from T1 measurements at 60 MHz; assay type: physicochemical; conditions: pH 7, 37° C.; for r1 (1 equiv Cu): 20 mM HEPES buffer
Description: as §1
Upon addition of up to 1 equiv of copper ions, the relaxivity values of the CG contrast agents increase, establishing the ability of these probes to sense copper using the MR modality (Table 1, FIG. 3). CG2, CG3, CG4, and CG5 respond to Cu^+ with relaxivity increases ranging from 92% to 360%. […] These values represent the largest relaxivity enhancements observed to date for metal-activated MR contrast agents and a ca. 9-fold improvement in copper ion response compared to CG1 (41% increase). The observed differences in turn-on Cu^+ responses for benzyl-substituted CG4 (290% increase) versus methyl-substituted CG5 (92% increase) with the same pyridyl-thioether receptor show the marked effects that small peripheral substitutions can have on relaxivity properties.

[6] = Metal ion selectivity of relaxivity response (competing metal ions alone or with added copper); assay type: physicochemical; conditions: relaxivity at 60 MHz, 20 mM HEPES, pH 7, 37° C.
Description: FIG. 6. Relaxivity responses of CG2 to various metal ions. White bars represent the addition of an excess of the appropriate metal ion (10 mM for Na^+, 2 mM for K^+, Mg^2+, and Ca^2+, and 0.2 mM for Fe^2+, Fe^3+, Cu^2+) to a 0.2 mM solution of CG2. Response to Zn^2+ was measured both at 0.2 mM Zn^2+ (Zn^2+1×) and 2 mM Zn^2+ (Zn^2+10×). Black bars represent the subsequent addition of 0.2 mM Cu^+ to the CG2 solution. Relaxivity measurements were acquired at 37° C. in 20 mM HEPES buffer, pH 7, at a proton Larmor frequency of 60 MHz.
The potential ability of this new family of CG sensors to sense bioavailable copper pools in either or both its predominant oxidation states represents a significant advance over the initial CG1 compound.

[7] = in water, measured at 10 MHz; cited from earlier work
[8] = see reference 90, cited from earlier work
[9] = Dysprosium-induced 17O NMR shift (DIS) experiments for q; assay type: physicochemical; conditions: for −Δ ppm/[Dy] (DIS slope): no Cu^+
Description: FIG. 8. Plot of [DyCG2] vs. −Δ ppm of the ^17O signal of H2O in the absence and presence of 1 equiv Cu^+. Spectra were acquired at room temperature in 20 mM HEPES buffer, pH 7, at a ^17O Larmor frequency of 67.8 MHz.
To circumvent these issues, we turned our attention to an alternative method for obtaining q values, namely the application of ^17O NMR spectroscopy to Dy^3+ analogs of the CG sensors (DyCG2-6).^114 Specifically, interactions of water ligands with paramagnetic Dy^3+ ions lead to an upfield shift of the ^17O signals of H2O in a manner proportional to both the concentration of Dy^3+ and q. Moreover, this lanthanide-induced shift is largely insensitive to the non-water ligands coordinated to the paramagnetic metal center.^114 Dysprosium-induced shift (DIS) experiments for CG2 and CG3 were performed in 20 mM HEPES buffered to pH 7; CG4 and CG5 spectra were acquired in 10% acetonitrile in 20 mM HEPES buffered to pH 7 owing to solubility and stability of the Cu^+-bound complexes at higher Dy^3+ concentrations required for the DIS measurements (1-200 mmol/kg H2O). Dy concentrations were calculated using molality (with respect to H2O) since the ^17O shift represents the interaction between Dy^3+ and H2O; addition of CH3CN aids in stabilizing certain complexes but should not affect the DIS. The spectral results were calibrated to a DyCl3 standard (q=9) to determine the number of bound water molecules for the CG sensors with and without added Cu^+. A plot of varying DyCl3 concentrations versus DIS in pH 7 HEPES buffer has a slope of 324 ppm/(mol/kg H2O), which corresponds to a 36 ppm/(mol/kg H2O) shift per bound water molecule.
The effects of DyCG2 on the chemical shift of ^17O-labeled H2O were determined in the absence and presence of 1 equiv Cu^+ at various concentrations of Dy^3+ (FIG. 8). In the absence of Cu^+, the measured ^17O shift response for DyCG2 is 9 ppm/(mol/kg H2O), corresponding to q=0.3. When 1 equiv of Cu^+ is added, the observed shift response increases to 72 ppm/(mol/kg H2O), corresponding to q=2.0. […] DIS measurements of DyCG4 and DyCG5 without Cu^+ show slopes of 7 ppm/(mol/kg H2O) (q=0.2) and 12 ppm/(mol/kg H2O) (q=0.3), respectively. Cu^+ binding increases the DIS slopes for DyCG4 and DyCG5 to […] ([…]) and 41 ppm/(mol/kg H2O) (q=1.0), respectively.

| SMILES | Cu^2+/+ E1/2 [1] [V vs. SHE] | Kd [2] [pM] | r1 (no Cu) [3] [mM⁻¹ s⁻¹] | τs0 (electronic relaxation time at zero field) [4] [ps] | r1p 20 MHz 25° C. [4] [mM⁻¹ s⁻¹] | a (distance of closest approach of outer-sphere water protons) [4] [Å] | Δ^2 (average quadratic transient zero field splitting) [4] | τv (electronic correlation time) [4] [ps] | q [4] | τR (rotational correlation time) [4] | r1 (1 equiv Cu) [5] | redox specificity of relaxivity response (Cu^+ vs Cu^2+) [6] | % increase in r1 ([5]; 1 equiv Cu^+ vs no Cu, 20 mM HEPES) [%] | r1 value [7] [mM⁻¹ s⁻¹] | q of calibration standard ([8]; 20 mM HEPES, pH 7) | q of calibration standard ([8]; 10% CH3CN in 20 mM HEPES pH 7) | −Δ ppm/[Dy] (DIS slope) ([9]; 20 mM HEPES, pH 7) | −Δ ppm/[Dy] (DIS slope) ([9]; 10% CH3CN in 20 mM HEPES pH 7) | shift per bound water molecule ([9]; 10% acetonitrile in 20 mM pH 7 HEPES buffer) | shift per bound water molecule ([9]; pH 7 HEPES buffer) |
| --- | --- | --- | --- | --- | --- | --- | --- | --- | --- | --- | --- | --- | --- | --- | --- | --- | --- | --- | --- | --- |
| CCSCCN(Cc1ccccc1)Cc1cccc(CN2CCN(CC(=O)[O-])CCN(CC(=O)[O-])CCN(CC(=O)[O-])CC2)n1.[Gd+3] [CG4] | 0.40 | 14 | 1.7 | 99 | 2.1 | 4.2 ± 0.15 | 3.4 ± 1.4 10^19 s^−2 | 25 ± 7.7 | 0^c | 130^d ps | 6.6^b mM^−1s^−1 | give turn-on relaxivity increases with Cu^+ but do not respond to Cu^2+ | – | – | – | – | – | – | – | – |
| CCSCCN(C)Cc1cccc(CN2CCN(CC(=O)[O-])CCN(CC(=O)[O-])CCN(CC(=O)[O-])CC2)n1.[Gd+3] [CG5] | 0.34 | 32 | 1.2 | 95 | 1.6 | 4.8 ± 0.12 | 3.5 ± 0.8 10^19 s^−2 | 25 ± 4.2 | 0^c | 100^e ps | 2.3^b mM^−1s^−1 | give turn-on relaxivity increases with Cu^+ but do not respond to Cu^2+ | 92 | – | – | – | – | – | – | – |
| [Cu+2] [Cu^2+] | – | – | – | – | – | – | – | – | – | – | – | – | – | 1.0 | – | – | – | – | – | – |
| [Cl][Dy]([Cl])[Cl] [DyCl3, reference compound] | – | – | – | – | – | – | – | – | – | – | – | – | – | – | 9^a | 9^a | 324 ppm/(mol/kg H2O) | 362 ppm/(mol/kg H2O) | 40 ppm/(mol/kg H2O) | 36 ppm/(mol/kg H2O) |
